Data: PubChem BioAssay (NCI)
Values joined by “and” are separate entries in the source; they are usually repeats but may differ in a detail not shown here. Identical values can stand only once.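 Five compound concentrations were applied to cells in 96-well plates for 48 hours; endpoints were derived by simple linear interpolation of the resulting dose-response curve. Abbreviation: GI50, concentration required for 50% inhibition of growth. The concentration for full growth arrest is given as TGI.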

system: CAKI-1 renal; test: NCI anticancer screen, dose series, 48 h

Compound | GI50 [µM] | TGI [µM]
CNc1nc(NC2CCCC2)nc(Sc2ccc(OC)cc2)n1 | > 10 | > 10
C=CC(=O)Nc1cccc(Nc2nc(Nc3ccc(OCCOC)cc3)ncc2F)c1 | 0.511 | 2.46
C[C@H]1CCC/C=C/[C@@H]2C[C@H](N)C[C@H]2[C@H](O)/C=C/C(=O)O1 | > 100 | > 100
CC1=C(C)C(=O)O[C@@H]([C@](C)(O)[C@]2(O)CC[C@@]3(O)[C@@H]4C[C@H]5O[C@]56CC=CC(=O)[C@]6(C)[C@H]4CC[C@]23C)C1 | 0.18 | 2.11
CNC(=O)c1ccc(-c2cnc3ncc(Cc4ccc5ncccc5c4)n3n2)cc1F | > 100 | > 100
COc1ccc2c(-c3cc4ccccc4o3)cc(=O)oc2c1 |  | > 87.4
CCCSc1cc(Cl)nc(N)n1 | 90.7 | > 100
CN1CCN(Cc2ccc(NC(=O)c3ccc(C(C)(C)C)c(C#Cc4cnc5cccnn45)c3)cc2C(F)(F)F)CC1 | 12.1 | 26.7
C=CC(=O)N1CCN(c2ncnc3c(F)c(-c4c(O)cccc4F)c(Cl)cc23)CC1 | 12.6 | 25.8
C=CCOc1c(Br)cc(Br)cc1Br | 13 | 83.6
Cn1c(N)nc2c(nc(OCc3ccccc3)n2C2OC(CO)C(O)C2O)c1=O (stereo not drawn) |  | > 100
CC(=O)n1c(-c2ccc(Cl)cc2)nc2c(c1=O)C(c1ccc(Cl)cc1)c1sc3c(Cl)cccc3c1O2 (stereo not drawn) | 0.488 | 3.03
CN(C)CCNC(=O)Nc1c(C#N)[n+]([O-])c2cc(Cl)c(Cl)cc2[n+]1[O-] | 37.6 | > 100
COc1ccccc1C(=O)c1ccc2ccccc2c1 |  | 49.2
CS(=O)(=O)Nc1ccc(-c2ccc3c(NC(=O)C4CC4)n[nH]c3c2)cc1 | > 25 | > 25
C=C1C(=O)O[C@H]2[C@H]1CC/C(COC(=O)c1cc3cc(OC)ccc3[nH]1)=C\CC[C@@]1(C)O[C@@H]21 | 1.71 | 3.48
COCC(=O)OC1CCn2c1nc1c2C(=O)C(C)=C(NC(C)=O)C1=O (stereo not drawn) |  | 32.3
COc1ccc(C2C(C#N)=C(N)OC3=C2CCCc2ccc(F)cc23)cc1OC (stereo not drawn) | 34.2 | 65.3

system: HL-60(TB) leukemia; test: NCI anticancer screen, dose series, 48 h

Compound | GI50 [µM] | TGI [µM]
CNc1nc(NC2CCCC2)nc(Sc2ccc(OC)cc2)n1 | > 10 | > 10
C=CC(=O)Nc1cccc(Nc2nc(Nc3ccc(OCCOC)cc3)ncc2F)c1 | 7.7 | 41.7
C[C@H]1CCC/C=C/[C@@H]2C[C@H](N)C[C@H]2[C@H](O)/C=C/C(=O)O1 | 98.4 | > 100
CC1=C(C)C(=O)O[C@@H]([C@](C)(O)[C@]2(O)CC[C@@]3(O)[C@@H]4C[C@H]5O[C@]56CC=CC(=O)[C@]6(C)[C@H]4CC[C@]23C)C1 | 0.0412 | 1.48
CNC(=O)c1ccc(-c2cnc3ncc(Cc4ccc5ncccc5c4)n3n2)cc1F | > 100 | > 100
COc1ccc2c(-c3cc4ccccc4o3)cc(=O)oc2c1 |  | > 100
CCCSc1cc(Cl)nc(N)n1 | 6.48 | 50.5
CN1CCN(Cc2ccc(NC(=O)c3ccc(C(C)(C)C)c(C#Cc4cnc5cccnn45)c3)cc2C(F)(F)F)CC1 | 2.62 | 6.5
C=CC(=O)N1CCN(c2ncnc3c(F)c(-c4c(O)cccc4F)c(Cl)cc23)CC1 | 6.76 | 45.6
C=CCOc1c(Br)cc(Br)cc1Br | 32.1 | 89.3
Cn1c(N)nc2c(nc(OCc3ccccc3)n2C2OC(CO)C(O)C2O)c1=O (stereo not drawn) |  | > 100
CC(=O)n1c(-c2ccc(Cl)cc2)nc2c(c1=O)C(c1ccc(Cl)cc1)c1sc3c(Cl)cccc3c1O2 (stereo not drawn) | 0.289 | 0.853
CN(C)CCNC(=O)Nc1c(C#N)[n+]([O-])c2cc(Cl)c(Cl)cc2[n+]1[O-] | 27.2 | > 100
COc1ccccc1C(=O)c1ccc2ccccc2c1 |  | 21.8
CS(=O)(=O)Nc1ccc(-c2ccc3c(NC(=O)C4CC4)n[nH]c3c2)cc1 | > 16.7 | > 25
C=C1C(=O)O[C@H]2[C@H]1CC/C(COC(=O)c1cc3cc(OC)ccc3[nH]1)=C\CC[C@@]1(C)O[C@@H]21 | 0.326 | 2.08
COCC(=O)OC1CCn2c1nc1c2C(=O)C(C)=C(NC(C)=O)C1=O (stereo not drawn) |  | 3.68
COc1ccc(C2C(C#N)=C(N)OC3=C2CCCc2ccc(F)cc23)cc1OC (stereo not drawn) | 32 | > 100

system: K-562 leukemia; test: NCI anticancer screen, dose series, 48 h

Compound | GI50 [µM] | TGI [µM]
CNc1nc(NC2CCCC2)nc(Sc2ccc(OC)cc2)n1 | > 10 | > 10
C=CC(=O)Nc1cccc(Nc2nc(Nc3ccc(OCCOC)cc3)ncc2F)c1 | 4.8 | > 100
C[C@H]1CCC/C=C/[C@@H]2C[C@H](N)C[C@H]2[C@H](O)/C=C/C(=O)O1 | > 100 | > 100
CC1=C(C)C(=O)O[C@@H]([C@](C)(O)[C@]2(O)CC[C@@]3(O)[C@@H]4C[C@H]5O[C@]56CC=CC(=O)[C@]6(C)[C@H]4CC[C@]23C)C1 | 0.0907 | > 27.8
CNC(=O)c1ccc(-c2cnc3ncc(Cc4ccc5ncccc5c4)n3n2)cc1F | > 100 | > 100
COc1ccc2c(-c3cc4ccccc4o3)cc(=O)oc2c1 |  | > 100
CCCSc1cc(Cl)nc(N)n1 | > 100 | > 100
CN1CCN(Cc2ccc(NC(=O)c3ccc(C(C)(C)C)c(C#Cc4cnc5cccnn45)c3)cc2C(F)(F)F)CC1 | 0.932 | 2.6
C=CC(=O)N1CCN(c2ncnc3c(F)c(-c4c(O)cccc4F)c(Cl)cc23)CC1 | 21.2 | > 100
C=CCOc1c(Br)cc(Br)cc1Br | 7.92 | > 100
Cn1c(N)nc2c(nc(OCc3ccccc3)n2C2OC(CO)C(O)C2O)c1=O (stereo not drawn) |  | > 100
CC(=O)n1c(-c2ccc(Cl)cc2)nc2c(c1=O)C(c1ccc(Cl)cc1)c1sc3c(Cl)cccc3c1O2 (stereo not drawn) | 0.405 | 2.32
CN(C)CCNC(=O)Nc1c(C#N)[n+]([O-])c2cc(Cl)c(Cl)cc2[n+]1[O-] | 29.3 | > 100
COc1ccccc1C(=O)c1ccc2ccccc2c1 |  | > 100
CS(=O)(=O)Nc1ccc(-c2ccc3c(NC(=O)C4CC4)n[nH]c3c2)cc1 | 13.3 | > 25
C=C1C(=O)O[C@H]2[C@H]1CC/C(COC(=O)c1cc3cc(OC)ccc3[nH]1)=C\CC[C@@]1(C)O[C@@H]21 | 0.562 | 10.8
COCC(=O)OC1CCn2c1nc1c2C(=O)C(C)=C(NC(C)=O)C1=O (stereo not drawn) | 3.23 | 11.9
COc1ccc(C2C(C#N)=C(N)OC3=C2CCCc2ccc(F)cc23)cc1OC (stereo not drawn) | 26.6 | > 100

system: MDA-MB-435; test: NCI anticancer screen, dose series, 48 h

Compound | GI50 [µM] | TGI
CNc1nc(NC2CCCC2)nc(Sc2ccc(OC)cc2)n1 | > 10 | > 10 µM
C=CC(=O)Nc1cccc(Nc2nc(Nc3ccc(OCCOC)cc3)ncc2F)c1 | 2.87 | 15.7 µM
C[C@H]1CCC/C=C/[C@@H]2C[C@H](N)C[C@H]2[C@H](O)/C=C/C(=O)O1 | > 100 | > 100 µM
CC1=C(C)C(=O)O[C@@H]([C@](C)(O)[C@]2(O)CC[C@@]3(O)[C@@H]4C[C@H]5O[C@]56CC=CC(=O)[C@]6(C)[C@H]4CC[C@]23C)C1 | 0.0541 | 1.08 µM
CNC(=O)c1ccc(-c2cnc3ncc(Cc4ccc5ncccc5c4)n3n2)cc1F | > 100 | > 100 µM
COc1ccc2c(-c3cc4ccccc4o3)cc(=O)oc2c1 |  | > 100 µM
CCCSc1cc(Cl)nc(N)n1 | > 100 | > 100 µM
CN1CCN(Cc2ccc(NC(=O)c3ccc(C(C)(C)C)c(C#Cc4cnc5cccnn45)c3)cc2C(F)(F)F)CC1 | 1.5 | 2.95 µM
C=CC(=O)N1CCN(c2ncnc3c(F)c(-c4c(O)cccc4F)c(Cl)cc23)CC1 | 10.3 | 23.9 µM
C=CCOc1c(Br)cc(Br)cc1Br | 3.46 | 66.1 µM
Cn1c(N)nc2c(nc(OCc3ccccc3)n2C2OC(CO)C(O)C2O)c1=O (stereo not drawn) |  | > 100 µM
CC(=O)n1c(-c2ccc(Cl)cc2)nc2c(c1=O)C(c1ccc(Cl)cc1)c1sc3c(Cl)cccc3c1O2 (stereo not drawn) | 0.167 | 0.463 µM
CN(C)CCNC(=O)Nc1c(C#N)[n+]([O-])c2cc(Cl)c(Cl)cc2[n+]1[O-] | 31 | > 100 µM
COc1ccccc1C(=O)c1ccc2ccccc2c1 |  | 8.88 µM
CS(=O)(=O)Nc1ccc(-c2ccc3c(NC(=O)C4CC4)n[nH]c3c2)cc1 | > 25 | > 25 µM
C=C1C(=O)O[C@H]2[C@H]1CC/C(COC(=O)c1cc3cc(OC)ccc3[nH]1)=C\CC[C@@]1(C)O[C@@H]21 | 0.621 | 2.03 µM
COCC(=O)OC1CCn2c1nc1c2C(=O)C(C)=C(NC(C)=O)C1=O (stereo not drawn) | 2.17 | 3.69 µM and 3.42 µM
COc1ccc(C2C(C#N)=C(N)OC3=C2CCCc2ccc(F)cc23)cc1OC (stereo not drawn) | 12.9 | > 53.3 µM

system: MOLT-4 leukemia; test: NCI anticancer screen, dose series, 48 h

Compound | GI50 [µM] | TGI
CNc1nc(NC2CCCC2)nc(Sc2ccc(OC)cc2)n1 | > 10 | > 10 µM
C=CC(=O)Nc1cccc(Nc2nc(Nc3ccc(OCCOC)cc3)ncc2F)c1 | 3.97 | 33.6 µM
C[C@H]1CCC/C=C/[C@@H]2C[C@H](N)C[C@H]2[C@H](O)/C=C/C(=O)O1 | 77.3 | > 100 µM
CC1=C(C)C(=O)O[C@@H]([C@](C)(O)[C@]2(O)CC[C@@]3(O)[C@@H]4C[C@H]5O[C@]56CC=CC(=O)[C@]6(C)[C@H]4CC[C@]23C)C1 | 0.0786 | 35.2 µM
CNC(=O)c1ccc(-c2cnc3ncc(Cc4ccc5ncccc5c4)n3n2)cc1F | > 100 | > 100 µM
COc1ccc2c(-c3cc4ccccc4o3)cc(=O)oc2c1 |  | > 100 µM
CCCSc1cc(Cl)nc(N)n1 | 94.8 | > 100 µM
CN1CCN(Cc2ccc(NC(=O)c3ccc(C(C)(C)C)c(C#Cc4cnc5cccnn45)c3)cc2C(F)(F)F)CC1 | 1.77 | 4 µM
C=CC(=O)N1CCN(c2ncnc3c(F)c(-c4c(O)cccc4F)c(Cl)cc23)CC1 | 7.04 | 56.9 µM
C=CCOc1c(Br)cc(Br)cc1Br | 14.7 | 99.1 µM
Cn1c(N)nc2c(nc(OCc3ccccc3)n2C2OC(CO)C(O)C2O)c1=O (stereo not drawn) |  | > 100 µM
CC(=O)n1c(-c2ccc(Cl)cc2)nc2c(c1=O)C(c1ccc(Cl)cc1)c1sc3c(Cl)cccc3c1O2 (stereo not drawn) | 0.409 | 2.54 µM
CN(C)CCNC(=O)Nc1c(C#N)[n+]([O-])c2cc(Cl)c(Cl)cc2[n+]1[O-] | 3.92 | 20.9 µM
COc1ccccc1C(=O)c1ccc2ccccc2c1 |  | 34 µM
CS(=O)(=O)Nc1ccc(-c2ccc3c(NC(=O)C4CC4)n[nH]c3c2)cc1 | > 15.7 | > 25 µM
C=C1C(=O)O[C@H]2[C@H]1CC/C(COC(=O)c1cc3cc(OC)ccc3[nH]1)=C\CC[C@@]1(C)O[C@@H]21 | 1.32 | 5.21 µM
COCC(=O)OC1CCn2c1nc1c2C(=O)C(C)=C(NC(C)=O)C1=O (stereo not drawn) | 0.772 | 6.36 µM and 4.94 µM
COc1ccc(C2C(C#N)=C(N)OC3=C2CCCc2ccc(F)cc23)cc1OC (stereo not drawn) | > 38.2 | > 66.9 µM
